Data reported in patent publication US6686390B2, “Compounds having antiinflamatory activity: process for their preparation and pharmaceutical compositions containing them” (Dr. Reddy's Laboratories Limited, priority 2000, dated 2004).

Key:
COX-2 [1] = molecular target: T1, COX-2 (Homo sapiens, UniProt P35354); test: Human whole blood assay, COX-2 inhibition; format: cell-based; parameters: endogenous in cells; host or cells: human whole blood; conditions: read-out: IC50 COX-II
T1 sequence (P35354 18-604): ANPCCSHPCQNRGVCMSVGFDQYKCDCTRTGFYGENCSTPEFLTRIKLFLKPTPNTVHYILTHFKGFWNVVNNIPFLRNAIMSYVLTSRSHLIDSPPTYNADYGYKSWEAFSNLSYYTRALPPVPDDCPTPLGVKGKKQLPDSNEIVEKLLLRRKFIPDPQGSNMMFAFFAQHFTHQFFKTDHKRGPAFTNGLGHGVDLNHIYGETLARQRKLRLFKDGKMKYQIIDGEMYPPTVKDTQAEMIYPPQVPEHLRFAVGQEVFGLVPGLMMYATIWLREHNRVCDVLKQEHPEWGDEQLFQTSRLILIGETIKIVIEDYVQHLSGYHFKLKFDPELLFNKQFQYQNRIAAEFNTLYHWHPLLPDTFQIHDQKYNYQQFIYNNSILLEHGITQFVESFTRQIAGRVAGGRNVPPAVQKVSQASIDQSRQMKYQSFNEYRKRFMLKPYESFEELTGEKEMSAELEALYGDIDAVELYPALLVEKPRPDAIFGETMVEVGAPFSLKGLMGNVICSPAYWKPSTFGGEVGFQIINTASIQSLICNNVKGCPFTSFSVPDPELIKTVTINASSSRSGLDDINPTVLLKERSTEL
Protocol: (§1) 2) Human Whole Blood Assay:
An aliquot of fresh blood was mixed either with DMSO or test compounds and was allowed to clot for 1 hour at 37° C. TXB2 levels in the serum were measured using EIA kit (Cayman chemicals, USA) after deproteinization.

cox-1 enzyme = molecular target: T2, cox-1 enzyme (Ovis aries, UniProt P05979); test: Spectrophotometric assay of cox-1 (TMPD oxidation); format: biochemical; conditions: Conc. 100 μM; microsomal fraction of ram seminal vesicles; read-out: Percent inhibition COX-1
T2 construct: Microsomal fraction of ram seminal vesicles used as a source of cox-1 enzyme; from tissue; host or cells: ram seminal vesicles (microsomal fraction)
T2 sequence (P05979 25-600): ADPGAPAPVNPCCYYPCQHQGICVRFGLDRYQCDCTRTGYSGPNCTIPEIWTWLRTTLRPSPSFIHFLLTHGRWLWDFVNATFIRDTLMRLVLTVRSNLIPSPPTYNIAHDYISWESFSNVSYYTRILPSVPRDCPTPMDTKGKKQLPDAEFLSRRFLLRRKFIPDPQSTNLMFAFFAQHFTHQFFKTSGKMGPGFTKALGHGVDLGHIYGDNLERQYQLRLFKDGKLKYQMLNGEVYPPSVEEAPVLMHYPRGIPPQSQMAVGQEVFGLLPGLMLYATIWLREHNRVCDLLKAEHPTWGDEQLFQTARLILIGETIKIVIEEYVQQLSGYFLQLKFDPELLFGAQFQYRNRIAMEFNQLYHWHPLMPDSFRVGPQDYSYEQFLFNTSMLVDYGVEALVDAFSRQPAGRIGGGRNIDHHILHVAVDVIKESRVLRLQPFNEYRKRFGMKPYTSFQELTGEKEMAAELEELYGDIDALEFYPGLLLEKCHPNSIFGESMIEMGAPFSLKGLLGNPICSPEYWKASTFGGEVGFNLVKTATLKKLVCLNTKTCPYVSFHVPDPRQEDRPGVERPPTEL
Protocol: (§2) 1. Spectrophotometric assay of cox-1 and cox-2:
(§3) Microsomal fraction of ram seminal vesicles used as a source of cox-1 enzyme (Hemler et al., 1976) and microsomes from sf-9 cells infected with baculo virus containing human cox-2 c-DNA used as a source of cox-2 enzyme (Wanda et al., 1994). Enzyme activity was measured using a chromogenic assay based on oxidation of N,N,N′,N′-tetramethyl-p-phenylenediamine (TMPD) during the reduction of PGG2 to PGH2 as per described by Copeland et al., 1994 with following modifications. The assay mixture (1000 μl) contains […] pH 8.0, 3 μM EDTA, 15 μM hematin, 150 units enzyme and 8% DMSO. The mixture was pre-incubated at 25° C. for 15 minutes before initiation of enzyme reaction in presence of compound/vehicle. The reaction was initiated by the addition of 100 μM arachidonic acid and 120 μM TMPD. The enzyme activity is measured by estimation of the initial velocity of TMPD oxidation over the first 25 seconds of the reaction followed by increase in absorbency at […]. The IC50 values were calculated using non-linear regression analysis of percent inhibitions.

COX-2 [2] = molecular target: T1, COX-2; test: Spectrophotometric assay of cox-2 (TMPD oxidation); format: biochemical; parameters: made in house; host or cells: sf-9 insect cells, baculovirus; conditions: Conc. 100 μM; microsomes from sf-9 cells with human cox-2; read-out: Percent inhibition COX-2
Protocol: as §2, §3

COX-1 = molecular target: T3, COX-1 (Homo sapiens, UniProt P23219); test: Human whole blood assay, COX-1 inhibition; format: cell-based
T3 construct: Fresh heparinised human whole blood; endogenous in cells; host or cells: human whole blood
T3 sequence (P23219 24-599): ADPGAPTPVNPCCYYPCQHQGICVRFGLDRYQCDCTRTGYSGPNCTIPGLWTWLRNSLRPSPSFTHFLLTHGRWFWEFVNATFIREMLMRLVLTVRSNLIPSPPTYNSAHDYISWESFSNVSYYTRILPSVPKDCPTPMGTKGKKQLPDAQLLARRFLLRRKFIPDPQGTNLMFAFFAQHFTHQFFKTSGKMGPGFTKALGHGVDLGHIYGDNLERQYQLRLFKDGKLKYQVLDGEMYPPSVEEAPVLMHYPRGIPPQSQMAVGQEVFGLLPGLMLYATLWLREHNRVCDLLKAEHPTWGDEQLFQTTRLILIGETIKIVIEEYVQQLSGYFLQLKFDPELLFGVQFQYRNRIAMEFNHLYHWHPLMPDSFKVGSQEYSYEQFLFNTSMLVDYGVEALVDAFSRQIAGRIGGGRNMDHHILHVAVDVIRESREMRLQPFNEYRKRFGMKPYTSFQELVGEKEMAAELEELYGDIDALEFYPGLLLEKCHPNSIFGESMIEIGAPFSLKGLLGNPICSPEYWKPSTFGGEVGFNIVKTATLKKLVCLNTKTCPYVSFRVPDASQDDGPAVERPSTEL
Protocol: as §1
Fresh heparinised human whole blood was incubated with lipopolysaccharide (LPS) from E. coli at 100 μg/ml and with 2.5 μl vehicle (D)MSO) or test compound for 24 hours at 37° C. PGE2 levels in the plasma were measured using EIA kit (Cayman chemicals, USA) after deproteinization.

Structure (SMILES) | melting point [°C] | further results
CSc1ccc(C2=C(c3ccc(F)c(F)c3)C(=O)OC2)cc1Cl [Example 22, 4-(4-Methylsulfanyl-3-chlorophenyl)-3-(3,4-difluorophenyl)-2,5-dihydro-2-furanone] | 151 to 152 | 
CSc1ccc(C2=C(c3ccccc3)C(=O)OC2)c(F)c1 [Example 18, 4-(2-Fluoro-4-methylsulfanylphenyl)-3-phenyl-2,5-dihydro-2-furanone] | 145 to 147 | 
CS(=O)(=O)c1ccc(C2=C(c3ccc(F)c(F)c3)C(=O)OC2)c(F)c1 [Example 69, 3-(3,4-Difluorophenyl)-4-(2-fluoro-4-methylsulfonylphenyl)-2,5-dihydro-2-furanone] | 146 to 148 | IC50 (COX-2 [1]): 0.318 ± 0.013 µM; inhibition at 100 µM (cox-1 enzyme): 10%; inhibition at 100 µM (COX-2 [2]): 93%; IC50 (COX-1): > 500 µM
CSc1ccc(C2=C(c3ccc(F)cc3)C(=O)OC2)c(F)c1 [Example 42, 4-(2-Fluoro-4-methylsulfanylphenyl)-3-(4-fluorophenyl)-2,5-dihydro-2-furanone] | 118 | 
Cc1cc(C2=C(c3ccccc3)C(=O)OC2)ccc1S(C)(=O)=O [Example 6, 4-(3-Methyl-4-methylsulfonylphenyl)-3-phenyl-2,5-dihydro-2-furanone] | 167 to 170 | IC50 (COX-2 [1]): 5.7 µM; inhibition at 100 µM (cox-1 enzyme): 0%; inhibition at 100 µM (COX-2 [2]): 82%; IC50 (COX-1): > 500 µM
CCC1OC(=O)C(c2ccc(SC)c(C)c2)=C1c1ccc(S(C)(=O)=O)c(F)c1 (stereo not drawn) [Example 71, 5-Ethyl-4-(3-fluoro-4-methylsulfonylphenyl)-3-(3-methyl-4-methylsulfanylphenyl)-2,5-dihydro-2-furanone] | 148 to 150 | inhibition at 100 µM (cox-1 enzyme): 3%; inhibition at 100 µM (COX-2 [2]): 99%
CC1(C)OC(=O)C(c2ccc(F)cc2)=C1c1ccc(S(C)(=O)=O)c(CN2CCOCC2)c1 [Example 67, 3-(4-Fluorophenyl)-5,5-dimethyl-4-(4-methylsulfonyl-3-morpholinomethylphenyl)-2,5-dihydro-2-furanone] | 127 to 130 | 
CSc1ccc(C2=C(c3ccc(CC(C)C)cc3)C(=O)OC2)c(F)c1 [Example 35, 4-(2-Fluoro-4-methylsulfanylphenyl)-3-(4-isobutylphenyl)-2,5-dihydro-2-furanone] | 92 to 94 | 
CS(=O)(=O)c1ccc(C2=C(c3ccccc3)C(=O)N(c3ccc(F)cc3)C2=O)c(F)c1 [Example 98, 3-(2-Fluoro-4-methylsulfonylphenyl)-1-(4-fluorophenyl)-4-phenyl-2,5-dihydro-1H-2,5-azoledione] | 198 to 200 | 
CSc1ccc(C2=C(c3ccccc3)C(=O)OC2)cc1Cl [Example 20, 4-(4-Methylsulfanyl-3-chlorophenyl)-3-phenyl-2,5-dihydro-2-furanone] | 151 to 152 | 
COc1cc(C2=C(c3ccccc3)C(=O)OC2)ccc1SC [Example 14, 3-Phenyl-4-(3-methoxy-4-methylsulfanylphenyl)-2,5-dihydro-2-furanone] | 142 to 144 | 
CSc1ccc(C2=C(c3ccccc3)C(=O)OC2)cc1F [Example 23, 4-(4-Methylsulfanyl-3-fluorophenyl)-3-phenyl-2,5-dihydro-2-furanone] | 145 to 146 | 
CS(=O)(=O)c1ccc(C2=C(c3cccc4ccccc34)C(=O)OC2)c(F)c1 [Example 54, 4-(2-Fluoro-4-methylsulfonylphenyl)-3-(1-naphthyl)-2,5-dihydro-2-furanone] | 145 to 148 | 

The next lines start with results.

melting point [°C] | Structure (SMILES) | further results
159 to 160 | CSc1ccc(C2=C(c3ccc(C)cc3)C(=O)OC2)cc1F [Example 27, 4-(4-Methylsulfanyl-3-fluorophenyl)-3-(4-methylphenyl)-2,5-dihydro-2-furanone] | 
122 to 124 | COc1ccc(C2=C(c3ccc(SC)c(F)c3)COC2=O)cc1 [Example 38, 4-(4-Methylsulfanyl-3-fluorophenyl)-3-(4-methoxyphenyl)-2,5-dihydro-2-furanone] | 
150 to 153 | CSc1ccc(C2=C(c3ccc(F)c(F)c3)C(=O)OC2)cc1C [Example 3, 4-(3-Methyl-4-methylsulfanylphenyl)-3-(3,4-difluorophenyl)-2,5-dihydro-2-furanone] | 
140 to 143 | CSc1ccc(C2=C(c3ccc(C(F)(F)F)cc3)C(=O)OC2)cc1C [Example 16, 4-(3-Methyl-4-methylsulfanylphenyl)-3-(4-trifluoromethylphenyl)-2,5-dihydro-2-furanone] | 
147 to 150 | COc1ccc(C2=C(c3ccc(SC)c(C)c3)COC2=O)cc1 [Example 12, 4-(3-Methyl-4-methylsulfanylphenyl)-3-(4-methoxyphenyl)-2,5-dihydro-2-furanone] | 
164 to 166 | COOSc1ccc(C2=C(c3ccc(C)cc3)C(=O)OC2)cc1Cl [Example 29] | 
150 to 153 | CSc1ccc(C2=C(c3ccccc3)C(=O)OC2)cc1C [Example 5, 4-(3-Methyl-4-methylsulfanylphenyl)-3-phenyl-2,5-dihydro-2-furanone] | 
147 to 149 | CSc1ccc(C2=C(c3ccc(C)cc3)C(=O)OC2)cc1Cl [Example 26, 4-(4-Methylsulfanyl-3-chlorophenyl)-3-(4-methylphenyl)-2,5-dihydro-2-furanone] | 
157 to 158 | CSc1ccc(C2=C(c3ccc(SC)c(Cl)c3)COC2=O)cc1 [Example 21, 3-(4-Methylsulfanylphenyl)-4-(3-chloro-4-methylsulfanylphenyl)-2,5-dihydro-2-furanone] | 
126 to 130 | CSc1ccc(C2=C(c3ccc(F)cc3)C(=O)OC2)cc1C [Example 7, 4-(3-Methyl-4-methylsulfanylphenyl)-3-(4-fluorophenyl)-2,5-dihydro-2-furanone] | 
161 to 162 | CSc1ccc(C2=C(c3ccc(SC)c(F)c3)COC2=O)cc1 [Example 24, 4-(4-Methylsulfanyl-3-fluorophenyl)-3-(4-methylsulfanylphenyl)-2,5-dihydro-2-furanone] | 
146 to 149 | CSc1ccc(C2=C(c3ccc(CC(C)C)cc3)C(=O)OC2)cc1C [Example 11, 4-(3-Methyl-4-methylsulfanylphenyl)-3-(4-isobutylphenyl)-2,5-dihydro-2-furanone] | 
144 to 147 | CSc1ccc(C2=C(c3ccc(C)cc3)C(=O)OC2)cc1C [Example 8, 4-(3-Methyl-4-methylsulfanylphenyl)-3-(4-methylphenyl)-2,5-dihydro-2-furanone] | 
